Assay results reported in patent publication US20150225369A1, “DDR2 INHIBITORS FOR THE TREATMENT OF OSTEOARTHRITIS” (Merck Patent GmbH, priority 2012, published 2015).

The compounds below were run against T1, His-tagged human recombinant DDR-2 kinase domain (His-TEV-DDR2 467-855 aa) (Homo sapiens, UniProt Q16832) (assay: Autophosphorylation assay for biochemical activity testing of DDR2 (HTRF)). Conditions: 4 nM DDR2 kinase domain, 150 μM ATP, 150 min at 22° C.
T1 construct: His-TEV-DDR2 467-855 aa
T1 sequence (Q16832 467-855): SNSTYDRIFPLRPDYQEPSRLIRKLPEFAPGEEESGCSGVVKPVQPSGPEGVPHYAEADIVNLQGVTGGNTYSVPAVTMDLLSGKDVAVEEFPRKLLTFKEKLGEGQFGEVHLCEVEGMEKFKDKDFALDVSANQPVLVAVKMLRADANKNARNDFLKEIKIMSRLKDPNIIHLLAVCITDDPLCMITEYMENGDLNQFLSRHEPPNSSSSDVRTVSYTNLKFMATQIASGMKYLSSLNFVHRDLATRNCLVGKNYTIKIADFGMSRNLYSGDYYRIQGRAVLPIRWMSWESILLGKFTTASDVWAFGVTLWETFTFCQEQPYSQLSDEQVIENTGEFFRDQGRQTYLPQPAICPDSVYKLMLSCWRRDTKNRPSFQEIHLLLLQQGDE
How it was run: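 Phospho-tyrosine was detected by HTRF between XL665 anti-6His and cryptate anti-phosphotyrosine PT66 antibodies, using the emission ratio. Inhibition was referenced to the inhibitor-free reaction.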

Row | Structure (SMILES) | IC50
1 | Cc1cc(Oc2ccc(CNC(=O)Nc3cc(C(F)(F)F)cnc3Cl)cc2)ccn1 [compound 29] | 350 nM

Same assay, conditions: biochemical DDR2 autophosphorylation

Row | Structure (SMILES) | IC50
2 | CNC(=O)c1cc(Oc2ccc(CNC(=O)Nc3cc(C)c(Cl)cc3OCCN3CCNCC3)cc2C)ccn1 [compound 143, 4-(4-{3-[4-Chloro-5-methyl-2-(2-piperazin-1-yl-ethoxy)-phenyl]-ureidomethyl}-2-methyl-phenoxy)-pyridine-2-carboxylic acid methylamide] | 77 nM

Each compound was assayed against T2, HEK293 transfected with human DDR2 (Homo sapiens, UniProt Q16832) (assay: Phospho-DDR2 cellular assay (collagen II induced DDR2 phosphorylation, ELISA)). Conditions: HEK293 transfected with human DDR2, 50 μg/ml chicken collagen II, 16 h; read-out: IC50 [p-DDR2].
T2 construct: expressed in transfected cells; host or cells: HEK293 (PLT460F_(DDR2)-P7-1)
T2 sequence (Q16832 22-855): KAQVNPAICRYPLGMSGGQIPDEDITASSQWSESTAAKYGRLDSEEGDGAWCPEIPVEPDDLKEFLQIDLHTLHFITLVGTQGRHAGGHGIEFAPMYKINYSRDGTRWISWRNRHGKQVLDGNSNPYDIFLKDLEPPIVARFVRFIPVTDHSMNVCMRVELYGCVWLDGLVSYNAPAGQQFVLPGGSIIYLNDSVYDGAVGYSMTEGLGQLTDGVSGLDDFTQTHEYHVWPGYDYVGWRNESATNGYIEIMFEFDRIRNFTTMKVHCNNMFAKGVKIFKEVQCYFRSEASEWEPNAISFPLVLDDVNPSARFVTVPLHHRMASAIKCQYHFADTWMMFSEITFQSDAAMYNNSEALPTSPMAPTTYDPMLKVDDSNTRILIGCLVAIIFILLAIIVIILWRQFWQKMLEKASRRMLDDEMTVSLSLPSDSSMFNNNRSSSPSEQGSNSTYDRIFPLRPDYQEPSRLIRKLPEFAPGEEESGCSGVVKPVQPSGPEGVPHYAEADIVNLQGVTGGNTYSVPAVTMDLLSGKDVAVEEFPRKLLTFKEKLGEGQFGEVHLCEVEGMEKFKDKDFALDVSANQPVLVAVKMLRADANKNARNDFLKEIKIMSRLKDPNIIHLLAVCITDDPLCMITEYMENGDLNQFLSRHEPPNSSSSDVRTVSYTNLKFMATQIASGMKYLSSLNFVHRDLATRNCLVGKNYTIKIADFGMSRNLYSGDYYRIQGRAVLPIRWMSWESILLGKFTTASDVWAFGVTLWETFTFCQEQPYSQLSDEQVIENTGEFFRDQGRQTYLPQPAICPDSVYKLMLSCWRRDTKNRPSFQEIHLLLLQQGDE
Format: cell-based
Experimental: Assays were performed in a 384 well plate format, using cell line HEK293 transfected with human DDR2 (PLT460F_(DDR2)-P7-1)
Cells were seeded at a density of 10'000 cells/well in 384well poly-D-lysine coated Black/clear plate (Cellcoat Greiner) and incubated in DMEM medium in the presence of 10% fetal bovine serum at 37° C., 5% CO2 for 48 h. Medium was replaced by serum-free medium and cells were incubated at 37° C., 5% CO2 for 8 h. Compound to be tested in 5% DMSO or 5% DMSO and 50 μg/ml of chicken collagen II were added and cells were incubated at 37° C., 5% CO2 for 16 h
Cells were rinsed with ice-cold PBS, lysed with lysis buffer (M-PER Thermo #78501) for 30 min at room temperature and centrifuged for 1 min at 1000 RPM. In parallel, White High binding 384 well plates (Corning) were coated with mouse anti-human DDR2 capture antibody (R&D Systems kit DuoSet IC Human phospho-DDR2 ELISA), overnight at RT.
An aliquot of cell lysate was transferred to the coated plates and incubated for 2 h at RT. Plates were washed and mouse anti-phospho-tyrosine detection antibody (R&D Systems kit DuoSet IC Human phospho-DDR2 ELISA) conjugated to horse radish peroxidase (HRP) was added for 2 h at RT. Plates were washed and chemiluminescent substrate for HRP (Thermo) was added for 15 min at RT. Luminescence was measured on a luminometer.

Row | Structure (SMILES) | IC50
3 | Cc1cc(Oc2ccc(CNC(=O)Nc3cc(C(F)(F)F)cnc3Cl)cc2)ccn1 [compound 29] | 94 nM
4 | Cn1cc(C(F)(F)F)cc(NC(=O)NCc2ccc(Oc3ccnc4c3CNC(=O)N4)cc2)c1=O [compound 5] | 5.9 nM

Same assay, conditions: cellular phospho-DDR2; read-out: IC50 [p-DDR2]

Row | Structure (SMILES) | IC50
5 | CNC(=O)c1cc(Oc2ccc(CNC(=O)Nc3cc(C)c(Cl)cc3OCCN3CCNCC3)cc2C)ccn1 [compound 143, 4-(4-{3-[4-Chloro-5-methyl-2-(2-piperazin-1-yl-ethoxy)-phenyl]-ureidomethyl}-2-methyl-phenoxy)-pyridine-2-carboxylic acid methylamide] | 66 nM
6 | CNC(=O)c1cc(Oc2ccc(CNC(=O)Nc3cc(C(F)(F)F)ccc3-n3ccnc3)cc2)ccn1 [compound 243, 4-{4-[3-(2-Imidazol-1-yl-5-trifluoromethyl-phenyl)-ureidomethyl]-phenoxy}-pyridine-2-carboxylic acid methylamide] | 9400 nM
7 | CNC(=O)c1cc(Oc2ccc(CNC(=O)Nc3nnc(C(F)(F)F)s3)cc2)ccn1 [compound 222, 4-{4-[3-(5-Trifluoromethyl-[1,3,4]thiadiazol-2-yl)-ureidomethyl]-phenoxy}-pyridine-2-carboxylic acid methylamide] | 575 nM
8 | CNC(=O)c1cc(Oc2ccc(CNC(=O)Nc3ccc(Cl)c(C)c3)cc2)ccn1 [compound 74, 4-{4-[3-(4-Chloro-3-methyl-phenyl)-ureidomethyl]-phenoxy}-pyridine-2-carboxylic acid methylamide] | 175 nM
9 | CNC(=O)c1cc(Oc2ccc(CNC(=O)Nc3cc(C(F)(F)F)ccc3CC(N)=O)cc2)ccn1 [compound 209, 4-{4-[3-(2-Carbamoylmethyl-5-trifluoromethyl-phenyl)-ureidomethyl]-phenoxy}-pyridine-2-carboxylic acid methylamide] | 985 nM
10 | CNC(=O)c1cc(Oc2ccc(CNC(=O)Nc3cc(C(F)(F)F)ccc3O)cc2C)ccn1 [compound 204, 4-{4-[3-(2-Hydroxy-5-trifluoromethyl-phenyl)-ureidomethyl]-2-methyl-phenoxy}-pyridine-2-carboxylic acid methylamide] | 38 nM
11 | CNC(=O)c1cc(Oc2ccc(CNC(=O)Nc3cc(OC)c(OC)c(OC)c3)cc2)ccn1 [compound 80, 4-{4-[3-(3,4,5-Trimethoxy-phenyl)-ureidomethyl]-phenoxy}-pyridine-2-carboxylic acid methylamide] | 750 nM
12 | CNC(=O)c1cc(Oc2ccc(CNC(=O)Nc3cc(C)c(Cl)cc3NC(C)=O)cc2C)ccn1 [compound 186, 4-{4-[3-(2-Acetylamino-4-chloro-5-methyl-phenyl)-ureidomethyl]-2-methyl-phenoxy}-pyridine-2-carboxylic acid methylamide] | 330 nM
13 | CNC(=O)c1cc(Oc2ccc(C(C)NC(=O)Nc3ccc(C)c(Cl)c3)cc2)ccn1 (stereo not shown) [compound 73, 4-(4-{1-[3-(3-Chloro-4-methyl-phenyl)-ureido]-ethyl}-phenoxy)-pyridine-2-carboxylic acid methylamide] | 1750 nM
14 | CNC(=O)c1cc(Oc2ccc(CNC(=O)Nc3cc(C(F)(F)F)ccc3-n3ccnc3)cc2C)ccn1 [compound 240, 4-{4-[3-(2-Imidazol-1-yl-5-trifluoromethyl-phenyl)-ureidomethyl]-2-methyl-phenoxy}-pyridine-2-carboxylic acid methylamide] | 2900 nM
15 | CNC(=O)c1cc(Oc2ccc(CNC(=O)N3C(=O)Cc4ccc(C(F)(F)F)cc43)cc2)ccn1 [compound 205, 2-Oxo-6-trifluoromethyl-2,3-dihydro-indole-1-carboxylic acid 4-(2-methylcarbamoyl-pyridin-4-yloxy)-benzylamide] | 1100 nM
16 | CNC(=O)c1cc(Oc2ccc(CNC(=O)Nc3cccc(S(C)(=O)=O)c3)cc2)ccn1 [compound 135, 4-{4-[3-(3-Methanesulfonyl-phenyl)-ureidomethyl]-phenoxy}-pyridine-2-carboxylic acid methylamide] | 390 nM
17 | CNC(=O)c1cc(Oc2ccc(CNC(=O)Nc3cc(C(F)(F)F)ccc3CN3CCNCC3=O)cc2)ccn1 [compound 208, 4-(4-{3-[2-(2-Oxo-piperazin-1-ylmethyl)-5-trifluoromethyl-phenyl]-ureidomethyl}-phenoxy)-pyridine-2-carboxylic acid methylamide] | 855 nM
18 | CNC(=O)c1cc(Oc2ccc(CNC(=O)Nc3cc(Cl)ccc3C)cc2)ccn1 [compound 42, 4-{4-[3-(5-Chloro-2-methyl-phenyl)-ureidomethyl]-phenoxy}-pyridine-2-carboxylic acid methylamide] | 230 nM
19 | CNC(=O)c1cc(Oc2ccc(CNC(=O)Nc3cc(C(C)(C)C)n[nH]3)cc2)ccn1 [compound 223, 4-{4-[3-(5-tert-Butyl-2H-pyrazol-3-yl)-ureidomethyl]-phenoxy}-pyridine-2-carboxylic acid methylamide] | 7950 nM
20 | CNC(=O)c1cc(Oc2ccc(CNC(=O)Nc3cccc(N(C)C)c3)cc2)ccn1 [compound 228, 4-{4-[3-(3-Dimethylamino-phenyl)-ureidomethyl]-phenoxy}-pyridine-2-carboxylic acid methylamide] | 1500 nM
21 | CNC(=O)c1cc(Oc2ccc(CNC(=O)Nc3cc(C(F)(F)F)ccc3-n3cncn3)cc2C)ccn1 [compound 202, 4-{2-Methyl-4-[3-(2-[1,2,4]triazol-1-yl-5-trifluoromethyl-phenyl)-ureidomethyl]-phenoxy}-pyridine-2-carboxylic acid methylamide] | 14 nM
22 | CNC(=O)c1cc(Oc2ccc(CNC(=O)Nc3ccc(C)c(Cl)c3)cc2F)ccn1 [compound 234, 4-{4-[3-(3-Chloro-4-methyl-phenyl)-ureidomethyl]-2-fluoro-phenoxy}-pyridine-2-carboxylic acid methylamide] | 72 nM
23 | CNC(=O)c1cc(Oc2ccc(CNC(=O)Nc3cc(C(F)(F)F)ccc3CCN)cc2)ccn1 [compound 175, 4-(4-{3-[2-(2-Amino-ethyl)-5-trifluoromethyl-phenyl]-ureidomethyl}-phenoxy)-pyridine-2-carboxylic acid methylamide] | 1300 nM
24 | CNC(=O)c1cc(Oc2ccc(CNC(=O)Nc3cc(C(F)(F)F)ccc3CNC(C)=O)cc2C)ccn1 [compound 214, 4-(4-{3-[2-(Acetylamino-methyl)-5-trifluoromethyl-phenyl]-ureidomethyl}-2-methyl-phenoxy)-pyridine-2-carboxylic acid methylamide] | 45 nM
25 | CNC(=O)c1cc(Oc2ccc(CNC(=O)Nc3cccc(S(C)(=O)=O)c3)cc2C)ccn1 [compound 154, 4-{4-[3-(3-Methanesulfonyl-phenyl)-ureidomethyl]-2-methyl-phenoxy}-pyridine-2-carboxylic acid methylamide] | 1250 nM
